Data taken from US20260274814A1, “THIENYL COMPOUNDS FOR THE TREATMENT OF A CENTRAL NERVOUS SYSTEM DISEASE OR DISORDER” (Coreterra Therapeutics, Inc., priority 2023, published 2026).
Structures can show the parent of a compound that is named as a salt.

System: mice
Experiment: Neuropharmacological Assay (SmartCube): automated behavioral signature of compound-treated mice compared with a database of reference drug classes
Format: in vivo
Details: for MED (minimal effective dose) / minimal effective dose: dose having 45% or more total activity in SmartCube, i.p., if only one dose was tested, that dose is shown; for AG / AN / AP / HL / PS / SH / UK / AD / AX / CE / MS: probability that activity matches this class of agents, 3.0 mg/kg i.p., 15 min before test; for minimal effective dose: Mus musculus, ip, read-out: MED (minimal effective dose)
From the text: Neurosci. 2011 Sep. 9; 5: 103 (doi: 10.3389/fnins.2011.00103) (“Roberds”). As reported in Roberds, because psychiatric diseases generally result from disorders of cell-cell communication or circuitry, intact systems are useful in detecting improvement in disease-relevant endpoints. These endpoints are typically behavioral in nature, often requiring human observation and interpretation. To facilitate testing of multiple compounds for behavioral effects relevant to psychiatric disease, PsychoGenics, Inc. (Tarrytown, NY, “PGI”) developed SmartCube™ an automated system in which behaviors of compound-treated mice are captured by digital video and analyzed with computer algorithms. (D. Brunner et al. Drug Discov. Today 2002, 7:S107-S112). PGI Analytical Systems uses data from SmartCube™ to compare the behavioral signature of a test compound to a database of behavioral signatures obtained using a large set of diverse reference compounds. (The composition of the database as well as validation of the method is further described in Roberds). In this way, the neuropharmacological effects of a test compound can be predicted by similarity to major classes of compounds, such as antipsychotics, anxiolytics and antidepressants.
The SmartCube™ system produces an activity signature indicating the probability that the activity of the test compound at the administered dose matches a given class of neuropharmacological agents. (See, e.g., Roberds, FIGS. 2 and 3). The test compound is simultaneously compared against multiple classes of agents; thus, a separate probability is generated for each behavioral effect measured (e.g., anxiolytic activity, analgesic activity, etc.). In table 2 below, these probabilities are reported for each behavioral effect measured as described in Table 1 below.
Provided compounds were dissolved in a mixture of Pharmasolve™ (N-methyl-2-pyrrolidone), polyethylene glycol and propylene glycol, and were injected i.p. 15 min. before the behavioral test. For each compound, injections were administered at 3 different doses. For each behavioral effect measured, results for the 3.0 mg/kg dose are presented. The potency of many of the compounds in the table was also determined in the SmartCube™ system. Test compounds were routinely examined at dose levels of 0.3, 1, 3 and 10 mg per kg (mpk), although the dose range was increased or decreased, if necessary, to obtain a full dose response curve. A compound's minimal effective dose (MED) is a measure of the compound's potency. The MED was defined as the dose (in mpk) having 45% or more total activity in SmartCube. If only one dose was tested, that dose is shown in the MED column of Table 2 even though the dose is not known to be the MED.

Row | Structure (SMILES) | MED (minimal effective dose) (hydrochloride) [mpk] | AG | AN | AP | HL | PS | SH | UK | AD (hydrochloride, 3 mg/kg) | AX (hydrochloride, 3 mg/kg) | MS (hydrochloride, 3 mg/kg) | AD | CE | MS | AP (hydrochloride, 3 mg/kg) | AX | further results
1 | CNC1(C)CCc2ccsc2C1 (single isomer, unassigned) [Compound 49, N, 6-dimethyl-5,7-dihydro-4H-benzothiophen-6-amine hydrochloride] | 1.0 | ND (^ <4%) | ND (^ <4%) | ND (^ <4%) | ND (^ <4%) | ND (^ <4%) | ND (^ <4%) | ND (^ <4%) | ++ (≥24%) | ++ (≥24%) | + (≥4%) | – | – | – | – | – | CE (hydrochloride, 3 mg/kg): + (≥4%)
2 | CNC1(C)CCc2ccsc2C1 (single isomer, unassigned) [Compound 50, N, 6-dimethyl-5,7-dihydro-4H-benzothiophen-6-amine hydrochloride] | 3.0 | ND (^ <4%) | ND (^ <4%) | ND (^ <4%) | ND (^ <4%) | ND (^ <4%) | ND (^ <4%) | ND (^ <4%) | +++ (≥49%) | ND (^ <4%) | ND (^ <4%) | – | – | – | – | – | CE (hydrochloride, 3 mg/kg): ND (^ <4%)
3 | CNC1COc2cscc2C1 (single isomer, unassigned) [Compound 51, N-methyl-3,4-dihydro-2H-thieno[3,4-b]pyran-3-amine hydrochloride] | >10 | ND (^ <4%) | ND (^ <4%) | – | ND (^ <4%) | ND (^ <4%) | ND (^ <4%) | + (≥4%) | – | ND (^ <4%) | – | ND (^ <4%) | ND (^ <4%) | ND (^ <4%) | ND (^ <4%) | – | –
4 | CNC1COc2cscc2C1 (single isomer, unassigned) [Compound 52, N-methyl-3,4-dihydro-2H-thieno[3,4-b]pyran-3-amine hydrochloride] | 3.0 | ND (^ <4%) | ND (^ <4%) | – | ND (^ <4%) | ND (^ <4%) | ND (^ <4%) | + (≥4%) | – | ++ (≥24%) | – | ND (^ <4%) | ND (^ <4%) | ND (^ <4%) | +++ (≥49%) | – | –
5 | CNC1CCc2csc(Cl)c2C1 (single isomer, unassigned) [Compound 55, 3-chloro-N-methyl-4,5,6,7-tetrahydro-2-benzothiophen-5-amine hydrochloride] | – | ND (^ <4%) | – | ++ (≥24%) | ND (^ <4%) | ND (^ <4%) | ND (^ <4%) | ND (^ <4%) | ++ (≥24%) | + (≥4%) | – | – | ND (^ <4%) | ND (^ <4%) | – | – | minimal effective dose: 1 mg/kg; AN (hydrochloride, 3 mg/kg): ND (^ <4%)
6 | CNC1CCc2csc(Cl)c2C1 (single isomer, unassigned) [Compound 56, 3-chloro-N-methyl-4,5,6,7-tetrahydro-2-benzothiophen-5-amine hydrochloride] | – | ND (^ <4%) | – | ++ (≥24%) | ND (^ <4%) | ND (^ <4%) | ND (^ <4%) | ND (^ <4%) | ND (^ <4%) | ++ (≥24%) | – | – | ND (^ <4%) | ND (^ <4%) | – | – | MED (minimal effective dose): 1.0 mpk; AN (hydrochloride, 3 mg/kg): + (≥4%)
7 | CNC1CCc2c(csc2Cl)C1 (single isomer, unassigned) [Compound 57, 1-chloro-N-methyl-4,5,6,7-tetrahydro-2-benzothiophen-5-amine hydrochloride] | – | ND (^ <4%) | ND (^ <4%) | – | ND (^ <4%) | ND (^ <4%) | ND (^ <4%) | – | ++ (≥24%) | – | ND (^ <4%) | – | ND (^ <4%) | – | ++ (≥24%) | ND (^ <4%) | minimal effective dose: 1 mg/kg; UK (hydrochloride, 3 mg/kg): + (≥4%)
8 | CNC1CCc2c(csc2Cl)C1 (single isomer, unassigned) [Compound 58, 1-chloro-N-methyl-4,5,6,7-tetrahydro-2-benzothiophen-5-amine hydrochloride] | – | ND (^ <4%) | ND (^ <4%) | – | ND (^ <4%) | ND (^ <4%) | ND (^ <4%) | – | + (≥4%) | – | + (≥4%) | – | ND (^ <4%) | – | +++ (≥49%) | ND (^ <4%) | MED (minimal effective dose): 1.0 mpk; UK (hydrochloride, 3 mg/kg): ND (^ <4%)
9 | CNC1CCc2c(Cl)sc(Cl)c2C1 (single isomer, unassigned) [Compound 59, 1,3-dichloro-N-methyl-4,5,6,7-tetrahydro-2-benzothiophen-5-amine hydrochloride] | – | ND (^ <4%) | ND (^ <4%) | – | ND (^ <4%) | ND (^ <4%) | ND (^ <4%) | ND (^ <4%) | – | ++ (≥24%) | – | ND (^ <4%) | ND (^ <4%) | ND (^ <4%) | +++ (≥49%) | – | minimal effective dose: 3 mg/kg
10 | CNC1CCc2c(Cl)sc(Cl)c2C1 (single isomer, unassigned) [Compound 60, 1,3-dichloro-N-methyl-4,5,6,7-tetrahydro-2-benzothiophen-5-amine hydrochloride] | – | ND (^ <4%) | ND (^ <4%) | – | ND (^ <4%) | ND (^ <4%) | ND (^ <4%) | ND (^ <4%) | – | +++ (≥49%) | – | ND (^ <4%) | ND (^ <4%) | ND (^ <4%) | + (≥4%) | – | MED (minimal effective dose): 3.0 mpk
11 | CNC1CCc2csc(C(F)(F)F)c2C1 (single isomer, unassigned) [Compound 61, N-methyl-3-(trifluoromethyl)-4,5,6,7-tetrahydro-2-benzothiophen-5-amine hydrochloride] | 3.0 | ND (^ <4%) | ND (^ <4%) | – | ND (^ <4%) | ND (^ <4%) | ND (^ <4%) | ND (^ <4%) | + (≥4%) | – | – | – | ND (^ <4%) | ND (^ <4%) | +++ (≥49%) | ND (^ <4%) | –
12 | CNC1CCc2csc(C(F)(F)F)c2C1 (single isomer, unassigned) [Compound 62, N-methyl-3-(trifluoromethyl)-4,5,6,7-tetrahydro-2-benzothiophen-5-amine hydrochloride] | 1 | ND (^ <4%) | ND (^ <4%) | – | ND (^ <4%) | ND (^ <4%) | ND (^ <4%) | ND (^ <4%) | ++++ (≥74%) | – | – | – | ND (^ <4%) | ND (^ <4%) | + (≥4%) | ND (^ <4%) | –
13 | CNC1CCc2c(csc2C(F)(F)F)C1 (single isomer, unassigned) [Compound 63, N-methyl-1-(trifluoromethyl)-4,5,6,7-tetrahydro-2-benzothiophen-5-amine hydrochloride] | 1.0 | ND (^ <4%) | ND (^ <4%) | ND (^ <4%) | ND (^ <4%) | ND (^ <4%) | ND (^ <4%) | – | – | +++ (≥49%) | + (≥4%) | + (≥4%) | ND (^ <4%) | – | – | – | UK (hydrochloride, 3 mg/kg): ND (^ <4%)
